# Test results: US20060235076A1, “Medicinal composition for treating infection with drug-resistant staphylococcus aureus” (priority 2003, published 2006)
# Where two headings read alike, the source gives them in different places.
# Assays:
# MRSA = assay: Potentiating effect of galloyl quinic acid derivatives for the antibacterial activity of oxacillin (agar plate dilution method, MIC); format: cell-based, Staphylococcus aureus
# Description: (§1) According to the agar plate dilution method defined by Japan Society of Chemotherapy, MIC (Minimum inhibitory concentration) was determined. CAMHA was prepared by adding 50 mg/l of Ca-ion, 25 mg/l of Mg-ion, and 2% of NaCl to Mueller-Hinton II Agar (MHA), and it was used as a medium for use in the measurement of sensitivity. The bacterial liquid was incubated at 37° C. overnight and diluted to 10^6 CFU/ml with saline.
# It was confirmed that the known substances shown below were contained in “Tara” and their MICs were determined as described in example 2 with respect to the effects of the combination use with oxacillin
# MRSA and MSSA = assay: Antibacterial activity of gallic acid, various gallates and multivalent phenol derivatives alone (agar plate dilution method, MIC); format: cell-based, Staphylococcus aureus; settings: Staphylococcus aureus, compound alone; for MIC: read-out: MIC
# Description: as §1
# MIC for gallic acid, various gallates and multivalent phenol derivatives alone with MRSA and MSSA were determined as described in experiment 2.
compound,measurement,setting,value
"O=C(OC1CC(O)(C(=O)O)CC(O)C1OC(=O)c1cc(O)c(O)c(O)c1)c1cc(O)c(O)c(O)c1 (stereo not drawn) [3,4-digalloylquinic acid]",effect of combination use with oxacillin (words),MRSA,weak effects
"COC(=O)C1(O)CC(O)C(OC(=O)c2cc(O)c(O)c(O)c2)C(OC(=O)c2cc(O)c(O)c(O)c2)C1 (stereo not drawn) [Methyl 4,5-digalloylquinate, methyl 4,5-digalloylquinate]",effect of combination use with oxacillin (words),MRSA,follows
same,effect of combination use with oxacillin (words),"MRSA; listed as methyl 4,5-digalloylquinate",excellent
COC(=O)C1(O)CC(O)C(OC(=O)c2cc(O)c(O)c(O)c2)C(OC(=O)c2cc(O)c(O)c(O)c2)C1 (stereo not drawn) [compound 1],Oxacillin MIC,"MRSA; ATCC 6538, with 12.5 μg/ml of compound",<0.5 µg/mL
same,Oxacillin MIC,"MRSA; ATCC 6538, with 25 μg/ml of compound",<0.063 µg/mL
same,Oxacillin MIC,"MRSA; ATCC 6538, with 50 μg/ml of compound",<0.5 µg/mL
same,Oxacillin MIC,"MRSA; MRSA 1, with 12.5 μg/ml of compound",128 µg/mL
same,Oxacillin MIC,"MRSA; MRSA 1, with 25 μg/ml of compound",128 µg/mL
same,Oxacillin MIC,"MRSA; MRSA 1, with 50 μg/ml of compound",128 µg/mL
same,Oxacillin MIC,"MRSA; MRSA 2, with 12.5 μg/ml of compound",2 µg/mL
same,Oxacillin MIC,"MRSA; MRSA 2, with 25 μg/ml of compound",2 µg/mL
same,Oxacillin MIC,"MRSA; MRSA 2, with 50 μg/ml of compound",2 µg/mL
same,Oxacillin MIC,"MRSA; MRSA 3, with 12.5 μg/ml of compound",<0.5 µg/mL
same,Oxacillin MIC,"MRSA; MRSA 3, with 25 μg/ml of compound",0.5 µg/mL
same,Oxacillin MIC,"MRSA; MRSA 3, with 50 μg/ml of compound",1 µg/mL
same,Oxacillin MIC,"MRSA; MRSA 4, with 12.5 μg/ml of compound",128 µg/mL
same,Oxacillin MIC,"MRSA; MRSA 4, with 25 μg/ml of compound",128 µg/mL
same,Oxacillin MIC,"MRSA; MRSA 4, with 50 μg/ml of compound",32 µg/mL
same,Oxacillin MIC,"MRSA; MRSA 5, with 12.5 μg/ml of compound",128 µg/mL
same,Oxacillin MIC,"MRSA; MRSA 5, with 25 μg/ml of compound",32 µg/mL
same,Oxacillin MIC,"MRSA; MRSA 5, with 50 μg/ml of compound",64 µg/mL
same,Oxacillin MIC,"MRSA; MRSA 6, with 12.5 μg/ml of compound",2 µg/mL
same,Oxacillin MIC,"MRSA; MRSA 6, with 25 μg/ml of compound",2 µg/mL
same,Oxacillin MIC,"MRSA; MRSA 6, with 50 μg/ml of compound",4 µg/mL
same,Oxacillin MIC,"MRSA; MRSA 7, with 12.5 μg/ml of compound",32 µg/mL
same,Oxacillin MIC,"MRSA; MRSA 7, with 25 μg/ml of compound",16 µg/mL
same,Oxacillin MIC,"MRSA; MRSA 7, with 50 μg/ml of compound",16 µg/mL
same,Oxacillin MIC,"MRSA; MRSA 8, with 12.5 μg/ml of compound",<0.5 µg/mL
same,Oxacillin MIC,"MRSA; MRSA 8, with 25 μg/ml of compound",16 µg/mL
same,Oxacillin MIC,"MRSA; MRSA 8, with 50 μg/ml of compound",1 µg/mL
same,Oxacillin MIC,"MRSA; MRSA 9, with 12.5 μg/ml of compound",16 µg/mL
same,Oxacillin MIC,"MRSA; MRSA 9, with 25 μg/ml of compound",16 µg/mL
same,Oxacillin MIC,"MRSA; MRSA 9, with 50 μg/ml of compound",8 µg/mL
same,Oxacillin MIC,"MRSA; MRSA 10, with 12.5 μg/ml of compound",4 µg/mL
same,Oxacillin MIC,"MRSA; MRSA 10, with 25 μg/ml of compound",8 µg/mL
same,Oxacillin MIC,"MRSA; MRSA 10, with 50 μg/ml of compound",8 µg/mL
same,Oxacillin MIC,"MRSA; MRSA 12, with 12.5 μg/ml of compound",16 µg/mL
same,Oxacillin MIC,"MRSA; MRSA 12, with 25 μg/ml of compound",16 µg/mL
same,Oxacillin MIC,"MRSA; MRSA 12, with 50 μg/ml of compound",16 µg/mL
same,Oxacillin MIC,"MRSA; MRSA 16, with 12.5 μg/ml of compound",128 µg/mL
same,Oxacillin MIC,"MRSA; MRSA 16, with 25 μg/ml of compound",128 µg/mL
same,Oxacillin MIC,"MRSA; MRSA 16, with 50 μg/ml of compound",64 µg/mL
same,Oxacillin MIC,"MRSA; MRSA 17, with 12.5 μg/ml of compound",32 µg/mL
same,Oxacillin MIC,"MRSA; MRSA 17, with 25 μg/ml of compound",32 µg/mL
same,Oxacillin MIC,"MRSA; MRSA 17, with 50 μg/ml of compound",4 µg/mL
same,Oxacillin MIC,"MRSA; MRSA 18, with 12.5 μg/ml of compound",128 µg/mL
same,Oxacillin MIC,"MRSA; MRSA 18, with 25 μg/ml of compound",128 µg/mL
same,Oxacillin MIC,"MRSA; MRSA 18, with 50 μg/ml of compound",32 µg/mL
same,Oxacillin MIC,"MRSA; MRSA 20, with 12.5 μg/ml of compound",<0.5 µg/mL
same,Oxacillin MIC,"MRSA; MRSA 20, with 25 μg/ml of compound",0.25 µg/mL
same,Oxacillin MIC,"MRSA; MRSA 20, with 50 μg/ml of compound",<0.5 µg/mL
same,Oxacillin MIC,"MRSA; MRSA 21, with 12.5 μg/ml of compound",<0.5 µg/mL
same,Oxacillin MIC,"MRSA; MRSA 21, with 25 μg/ml of compound",0.25 µg/mL
same,Oxacillin MIC,"MRSA; MRSA 21, with 50 μg/ml of compound",1 µg/mL
same,Oxacillin MIC,"MRSA; MRSA 22, with 12.5 μg/ml of compound",1 µg/mL
same,Oxacillin MIC,"MRSA; MRSA 22, with 25 μg/ml of compound",0.5 µg/mL
same,Oxacillin MIC,"MRSA; MRSA 22, with 50 μg/ml of compound",1 µg/mL
same,Oxacillin MIC,"MRSA; MRSA COL, with 12.5 μg/ml of compound",8 µg/mL
same,Oxacillin MIC,"MRSA; MRSA COL, with 25 μg/ml of compound",32 µg/mL
same,Oxacillin MIC,"MRSA; MRSA COL, with 50 μg/ml of compound",2 µg/mL
same,Oxacillin MIC,"MRSA; MSSA 1003, with 12.5 μg/ml of compound",<0.5 µg/mL
same,Oxacillin MIC,"MRSA; MSSA 1003, with 25 μg/ml of compound",0.25 µg/mL
same,Oxacillin MIC,"MRSA; MSSA 1003, with 50 μg/ml of compound",<0.5 µg/mL
same,Oxacillin MIC,"MRSA; MSSA 1010, with 12.5 μg/ml of compound",<0.5 µg/mL
same,Oxacillin MIC,"MRSA; MSSA 1010, with 25 μg/ml of compound",0.5 µg/mL
same,Oxacillin MIC,"MRSA; MSSA 1010, with 50 μg/ml of compound",<0.5 µg/mL
same,Oxacillin MIC,"MRSA; MSSA 1032, with 12.5 μg/ml of compound",<0.5 µg/mL
same,Oxacillin MIC,"MRSA; MSSA 1032, with 25 μg/ml of compound",0.25 µg/mL
same,Oxacillin MIC,"MRSA; MSSA 1032, with 50 μg/ml of compound",<0.5 µg/mL
same,Oxacillin MIC,"MRSA; RN4220, with 12.5 μg/ml of compound",<0.5 µg/mL
same,Oxacillin MIC,"MRSA; RN4220, with 25 μg/ml of compound",0.125 µg/mL
same,Oxacillin MIC,"MRSA; RN4220, with 50 μg/ml of compound",<0.5 µg/mL
CCCCCCCCCCCCCCCCOC(=O)c1cc(O)c(O)c(O)c1 [Cetyl gallate],MIC,"MRSA and MSSA; ATCC 6538 / MRSA / MSSA, ATCC6538",> 250 µg/mL
same,MIC,MRSA and MSSA; COL,250 µg/mL
same,MIC,MRSA and MSSA; MRSA #1,> 250 µg/mL
same,MIC,MRSA and MSSA; MRSA #2,250 µg/mL
same,MIC,MRSA and MSSA; MRSA #3,> 250 µg/mL
same,MIC,MRSA and MSSA; MRSA #4,> 250 µg/mL
same,MIC,MRSA and MSSA; MRSA #5,> 250 µg/mL
same,MIC,MRSA and MSSA; MRSA #6,125 µg/mL
same,MIC,MRSA and MSSA; MRSA #7,> 250 µg/mL
same,MIC,MRSA and MSSA; MRSA #8,> 250 µg/mL
same,MIC,MRSA and MSSA; MRSA #9,> 250 µg/mL
same,MIC,MRSA and MSSA; MRSA #10,125 µg/mL
same,MIC,MRSA and MSSA; MRSA #12,> 250 µg/mL
same,MIC,MRSA and MSSA; MRSA #16,> 250 µg/mL
same,MIC,MRSA and MSSA; MRSA #17,> 250 µg/mL
same,MIC,MRSA and MSSA; MRSA #18,> 250 µg/mL
same,MIC,MRSA and MSSA; MRSA #20,> 250 µg/mL
same,MIC,MRSA and MSSA; MRSA #21,> 250 µg/mL
same,MIC,MRSA and MSSA; MRSA #22,> 250 µg/mL
same,MIC,MRSA and MSSA; MRSA #24,> 250 µg/mL
same,MIC,MRSA and MSSA; MSSA #1003,> 250 µg/mL
same,MIC,MRSA and MSSA; MSSA #1010,> 250 µg/mL
same,MIC,MRSA and MSSA; MSSA #1020,> 250 µg/mL
same,MIC,MRSA and MSSA; MSSA #1023,> 250 µg/mL
same,MIC,MRSA and MSSA; MSSA #1029,250 µg/mL
same,MIC,MRSA and MSSA; MSSA #1032,250 µg/mL
same,MIC50,"MRSA and MSSA; over all strains of Table 3-2, read-out: MIC50",> 250 µg/mL
